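48-hour exposure; five concentrations; linearly interpolated endpoints. Abbreviation: GI50, concentration required for 50% inhibition of growth. At the TGI there is no net growth.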
Tests used:
Assay in all cases: DTP human tumour cell line panel, 48 h
[1] = test system: SNB-19 CNS
[2] = test system: SK-OV-3 ovarian
[3] = test system: HS 578T breast
[4] = test system: CCRF-CEM leukemia
[5] = test system: TK-10 renal
[6] = test system: BT-549 breast
[7] = test system: T-47D breast
[8] = test system: MOLT-4 leukemia
[9] = test system: COLO 205 colon
[10] = test system: A498 renal

| Compound | GI50 [1] [µM] | TGI [1] [µM] | GI50 [2] [µM] | TGI [2] [µM] | GI50 [3] [µM] | TGI [3] [µM] | GI50 [4] [µM] | TGI [4] [µM] | GI50 [5] [µM] | TGI [5] [µM] | GI50 [6] [µM] | TGI [6] [µM] | GI50 [7] [µM] | TGI [7] [µM] | GI50 [8] [µM] | TGI [8] [µM] | GI50 [9] [µM] | TGI [9] [µM] | TGI [10] [µM] | GI50 [10] [µM] |
| --- | --- | --- | --- | --- | --- | --- | --- | --- | --- | --- | --- | --- | --- | --- | --- | --- | --- | --- | --- | --- |
| OCC#Cc1ccccc1C#Cc1ccccc1 | 20.6 | 38.7 | 16.6 | 33.9 | 18.3 | 43.7 | 7.14 | 39.8 | 13.6 | 26.6 | 13.2 | 27.8 | 18.1 | 37.6 | 3.95 | > 100 | 19.6 | 37.6 |  |  |
| N=Nc1c(OC(=O)Nc2cccc(Cl)c2)[nH]c2ccccc12 |  | 18.5 |  | 21.2 |  | 40 |  | 21.9 |  | 24.6 |  | 20.1 |  | 7.34 |  | 25.8 |  | 19.4 | 26.1 |  |
| COc1cc2c3c(n(C)c(=O)c2cc1OC)-c1cc2c(cc1/C3=C\CCN)OCO2 | 0.394 | 16.3 | 3.88 | > 62.8 | 2.01 |  | < 0.0104 |  | 1.17 | 6.72 | 2.13 | 46.1 | 1.08 | > 100 | < 0.01 |  | 0.975 | > 100 | 27.7 | 11.4 |
| CN(C(=O)c1ccc(C(F)(F)F)cc1)c1ccc(Oc2ccc3c(c2)cc(C(=O)N2CCN(Cc4ccc(OC(F)F)cc4)CC2)n3C)nc1 | 34.9 | > 100 | > 100 | > 100 | > 91.5 | > 100 |  | > 100 | 15.7 | > 96.1 | 6.71 | > 100 | 0.253 | > 58.2 | 0.881 | > 100 | 60 | > 100 | > 100 | 0.729 |
| O=C(CSc1ccc(Cl)cc1)Nc1ccc(-c2nc3ccccc3s2)c(Cl)c1 | 4.31 | 74.2 | 13.7 | 44.1 | 2.56 | 7.99 | 3.58 | > 100 | 5.3 | 40 | 2.76 | 8.53 | 2.54 | 8.63 | 4.37 | > 100 | 2.88 | 9.24 | 6.34 | 1.98 |
| Cc1ccccc1S(=O)(=O)OC1NS(=O)(=O)c2ccccc21 (stereo not given) |  | > 100 |  | > 100 |  | > 100 |  |  |  | > 100 |  | > 100 |  | > 100 |  | > 100 |  | > 100 | > 100 |  |
| O=c1c2sccc2n(CC2COc3ccccc3O2)c(=O)n1O (stereo not given) | 12.8 | > 100 | 32.8 | > 100 | 15.1 | > 100 | 7 | 94.4 | 30.9 | > 100 | 12.1 | > 100 | 16.8 | > 100 | 21.3 | > 100 | 36.8 | > 100 | 38.1 | 13.3 |
| Cc1ccc(S(=O)(=O)Nc2ccccc2C(=O)c2ccc(C)c(C)c2)cc1 |  | > 100 |  | > 100 |  | > 100 |  |  |  | > 100 |  | > 100 |  | > 100 |  |  |  | > 100 | > 100 |  |
| COc1cccc(-c2nc(-c3ccc(NC(=O)C(C)C)cc3)[nH]c2-c2ccnc(Br)c2)c1 | 3.76 | > 100 | 3.66 | > 100 | 0.548 | 3.93 | 2.99 | > 100 | 4.35 | > 100 | 2.04 | 80.1 | 2.56 | 11.5 | 2.56 | > 100 | 2.81 | 7.59 | 6.62 | 1.84 |
| O=C(Nc1ccc(Cl)cc1)c1cccc(NC2=C(Cl)C(=O)N(Cc3ccccc3)C2=O)c1 | 17.6 | 45.9 | 29.6 | > 100 | 13.2 | 46.3 | 2.73 | 12.3 | 14.3 | 30.7 | 2.16 | 13.2 | 11.4 | 78.5 | 12.1 | 24.5 | 21.7 | > 100 | 47.1 | 19.9 |
| CC(=O)[C@@]12O[C@@H]1CC1C3CCC4=CC(O)CCC4(C)C3CCC12C (stereo not given in full) | 38.8 | > 100 |  |  | 27.9 | 90.2 |  |  | 15.9 | 56.9 | 27.8 | > 100 |  |  | > 100 | > 100 | 57.4 | > 100 | 59.1 | 2.04 |
| Cc1cccc(NC(=O)Cn2cnc3sc(C(=O)OC(C)C)c(C)c3c2=O)c1 | 14.1 | 38.6 | 26.8 | > 50 | 16.5 | > 50 | > 50 | > 50 | 16.7 | > 50 | 8.21 | 25.2 | > 50 | > 50 | > 50 | > 50 | > 50 | > 50 | > 50 | 16.1 |
| O=C(/C=C/c1ccc(Cl)cc1)c1ccc(Nc2ccnc3cc(Cl)ccc23)cc1 | > 57.6 | > 100 | > 100 | > 100 | 36.3 | > 100 | 7.3 | > 100 | > 84.7 | > 100 | 29.3 | > 100 | > 55.7 | > 100 | 5.46 | > 100 | 31.9 | > 100 | > 71.8 | > 44.7 |
| CC(C)(C)OC(=O)N[C@H]1CC2(C=C(Cl)C(=O)C(Cl)=C2)OC1=O |  | > 100 |  | > 46.4 |  | 75.5 |  | 5.4 |  | 33.8 |  | 29.9 |  | 40.5 |  | 15.7 |  | 14.9 | > 9.94 |  |
| CN1CCN(CCCn2c(=O)c3sc4ncccc4c3n3nnc(-c4ccccc4)c23)CC1 | 8.41 | 15.8 | 8.88 | 15.9 | 6.47 | 16 | 1.55 | 5.29 | 6.92 | 13.6 |  |  | 7.99 | 15.8 | 1.55 | 4.95 | 7.35 | 14.6 | 9.37 | 0.159 |
| COc1ccc([C@H]2[C@@H](F)C(=O)N2c2cc(OC)c(OC)c(OC)c2)cc1F | 0.302 | > 100 | 3.45 | > 100 | 0.295 | > 100 | 0.0471 | > 100 | 38.6 | > 100 | 0.0498 | 33.8 |  |  | 0.146 | 93.4 | 0.156 | 0.503 | 8.08 | 0.847 |

| Compound | GI50 [1] [µM] | TGI [1] [µM] | GI50 [2] [µM] | TGI [2] [µM] | GI50 [3] [µM] | TGI [3] [µM] | GI50 [4] [µM] | TGI [4] [µM] | GI50 [5] [µM] | TGI [5] [µM] | GI50 [6] [µM] | TGI [6] [µM] | GI50 [7] [µM] | TGI [7] [µM] | GI50 [8] [µM] | TGI [8] [µM] | GI50 [9] [µM] | TGI [9] [µM] | TGI [10] [µM] | GI50 [10] [µM] |
| --- | --- | --- | --- | --- | --- | --- | --- | --- | --- | --- | --- | --- | --- | --- | --- | --- | --- | --- | --- | --- |
| COc1ccc(-c2nnc(COc3ccc(C(=O)/C=C/c4ccco4)cc3)o2)cc1 | 5.56 | 18.2 | 12.2 | 24.6 | 7.43 | 43.1 |  |  | 2.81 | 6.25 | 2.87 | 8.16 | 2.91 | 10.8 | 2.89 | 9.05 | 2.23 | 4.32 | 23.6 | 11.4 |
| Cc1cc(I)cc(CN(C)CCCN2CCCCC2)c1O | 17.4 | 40.2 | 15.7 | 31.6 | 9.75 | 75.6 | 18.6 | 43.4 | 19.8 | 37.7 | 10.7 | 22.9 | 15.8 | 43 | 3.2 | 13.4 | 13.7 | 27.3 | 38.3 | 19.8 |
| CC1(C)C2CCC(=O)C1CC2 (stereo not given) |  | > 100 |  | > 100 |  | > 100 |  | > 100 |  | > 100 |  |  |  | > 100 |  | > 100 |  | > 100 | > 100 |  |
| Cc1c2c(nn1-c1ccc(S(=O)(=O)/N=C3\SCCC(=O)N3c3ccccc3)cc1)-c1ccccc1CC2 | > 100 | > 100 | > 100 | > 100 |  |  | > 100 | > 100 | > 100 | > 100 | > 100 | > 100 | > 100 | > 100 | > 100 | > 100 | > 100 | > 100 |  |  |
| CCN1CCN(c2nc(C)cc(N(CCNc3ccnc4cc(Cl)ccc34)Cc3ccc4c(c3)OCO4)n2)CC1 | 3 | 10.2 | 2.99 | 8.73 |  |  | 2.12 | 5.88 | 1.66 | 3.16 | 1.74 | 3.73 | 1.73 | 3.87 | 2.1 | 6.2 | 1.63 | 3.27 | 5.71 | 1.9 |
| CC[C@H](Nc1ncnc2nc[nH]c12)c1oc2ccccc2c(=O)c1-c1cccc(F)c1 | 30.5 | > 100 | 24.1 | > 100 | 14.1 | 86.9 | 23.3 | > 100 | 19.5 | 95.6 | 21.1 | > 100 | 8.24 | > 100 | 13.1 | 49.1 | 37.4 | > 100 |  |  |
| CCCCCCCCC/C=C1\CCC(CN2CCOCC2)C1=O (stereo not given) |  | 23.5 |  | 31.2 |  | 5.47 |  | 6.56 |  | 5.56 |  | 3.8 |  |  |  | 5.84 |  | 11.2 | 24.5 |  |
| CCOC(=O)c1cc2nc3ccccc3c(=O)n2c2ccccc12 |  | > 10 |  | > 10 |  | > 10 |  | > 10 |  | > 10 |  | > 10 |  | > 10 |  |  |  | > 10 | > 10 |  |
| Cc1cc(-c2ccc3nc(C4CCOCC4)n(CCOC(F)(F)F)c3c2)cn(C)c1=O |  |  |  | 1.25 |  | 0.888 | 1.71 | > 100 |  | 4.64 | 3.99 | > 80.4 |  |  | 0.588 | 17.5 |  | 2.97 | 3.03 |  |
| COc1cc(NCc2ccc3oc(=O)c(-c4ccccc4)nc3c2)cc(OC)c1OC |  | > 10 |  | > 10 |  | > 10 |  | > 10 |  | > 10 |  |  |  | > 10 |  | > 10 |  | > 10 |  |  |
| O=C(/C=C/c1ccncc1)c1cc(Cl)ccc1O | 17.7 | 40.2 | 27.4 | 87.7 | 39.5 | > 100 | 7.95 | 36.2 |  |  | 16.6 | 31.1 | 18.8 | 53.1 |  |  | 16.8 | 32.3 | 21.8 | 6.96 |
| COc1cc(C2c3cc4c(cc3OC(C)(O)C2C)OCO4)cc(OC)c1OC (stereo not given) |  | > 100 |  |  |  | > 100 |  | 16.6 |  |  |  | > 100 |  |  |  | 25.9 |  | > 100 | > 100 |  |
| N#CC(C#N)=CNC(N)=S |  | > 100 |  | > 100 |  | > 100 |  | > 100 |  |  |  | > 100 |  | > 100 |  | > 100 |  | > 100 | > 100 |  |
| COC(=O)C1=C(C)NC(C)=C(C(=O)OCCCN2CCC(c3ccccc3)(c3ccccc3)CC2)C1c1cccc([N+](=O)[O-])c1 (stereo not given) |  | 3.24 |  | 12.9 |  | 4.57 |  | > 100 |  | 7.34 |  |  |  | 30.2 |  | 10 |  | 3.08 | 8.69 |  |
| OC(c1nc2ccccc2[nH]1)C(O)C(O)C(O)c1nc2ccccc2[nH]1 (stereo not given) |  | > 100 |  | > 100 |  | > 100 |  |  |  | > 100 |  | > 100 |  | > 100 |  | > 100 |  | > 100 | > 100 |  |
| COc1ccc(/C=C(/C#N)n2nnc3cccc(F)c32)cc1 | 2.38 | 82.1 |  |  | 1.66 | 6.41 | 0.949 | > 100 | 3.18 | 47.2 | 2.39 | 52.9 | 0.503 | > 100 | 0.68 | > 100 | 0.811 | > 100 | 4.1 | 1.22 |
